Results on seven molecules are retold here after patent US20240351999A1, “PYRROLYLACYLPIPERIDYLAMINE COMPOUND AND USE THEREOF” (INSTITUTE OF MATERIA MEDICA ,CHINESE ACADEMY OF MEDICAL …, priority 2021, published 2024).

Format in all cases: cell-based
The test system of assay [1] is Escherichia coli ATCC 35218. Description: In vitro antibacterial activity (MIC), microbroth dilution. As to conditions: read-out: MIC Escherichia coli ATCC 35218.
Assay [2] concerns Pseudomonas aeruginosa ATCC 27853. The description is as above. As to conditions: read-out: MIC Pseudomonas aeruginosa ATCC 27853.
The subject of assay [3] is Staphylococcus aureus ATCC 43300 (MRSA). Described as above. To be noted: 37° C., 18 h, read-out: MIC Staphylococcus aureus ATCC 43300 (MRSA).
For assay [4], the system named is Enterococcus faecium EFM 19-1. Described as above. As to conditions: EFM191, 37° C., 18 h.
Assay [5] has as its system Klebsiella pneumoniae KPN-15-1. Described as above. To be noted: read-out: MIC Klebsiella pneumoniae KPN-15-1.
The subject of assay [6] is Acinetobacter baumannii ATCC 19606. The assay is described as above. As to conditions: read-out: MIC Acinetobacter baumannii ATCC 19606.
Assay [7] deals with Staphylococcus epidermidis ATCC 12228. Described as above. To be noted: ATCC12228, 37° C., 18 h.
Assay [8] has as its system Escherichia coli ATCC 25922. The assay is described as above. As to conditions: read-out: MIC Escherichia coli ATCC 25922.
Assay [9] concerns Staphylococcus aureus MRSA 15-1. The description is as above. To be noted: 37° C., 18 h.
The subject of assay [10] is Staphylococcus aureus ATCC 29213. The assay is described as above. To be noted: ATCC29213, 37° C., 18 h.
The test system of assay [11] is Staphylococcus epidermidis MRSE 15-1. The description is as above. To be noted: 37° C., 18 h.
Assay [12] has as its system Escherichia coli ECO+ 15-1. The description is as above. To be noted: 18 h, read-out: MIC Escherichia coli ECO+ 15-1.
The test system of assay [13] is Clostridium difficile ATCC 9689. The description is as above.
Assay [14] deals with Mycobacterium tuberculosis. Description: Activity against Mycobacterium tuberculosis (MIC). To be noted: read-out: Inhibitory activity (MIC) against Mycobacterium tuberculosis.
In assay [15] the test system is Staphylococcus aureus ATCC 25923. Description: In vitro antibacterial activity (MIC), microbroth dilution. To be noted: ATCC25923, 37° C., 18 h.
For assay [16], the system named is Enterococcus faecalis ATCC 51575. The description is as above. To be noted: ATCC51575, 37° C., 18 h.

≈ marks a conversion by molar mass, not a printed value. Read-outs that look alike come from different tables or passages of the source.

The term MIC denotes the smallest concentration in the dilution series that meets the test's criterion for growth inhibition. Regarding `CO[C@H]1CN(c2nnc(C(C)(C)O)s2)CC[C@H]1NC(=O)c1[nH]c(C)c(Cl)c1Cl` [Compound 2, 3,4-Dichloro-N-((3S,4R)-1-(5-(2-hydroxypropan-2-yl)-1,3,4-thiadiazol-2-yl)-3-methoxypiperidin-4-yl)-5-methyl-1H-pyrrole-2-carboxamide], the MIC in assay [1] (ATCC35218, 37° C., 18 h) was 1 µg/mL (≈ 2.23 µM); in [2] (ATCC27853, 37° C., 18 h) it was 8 µg/mL (≈ 17.8 µM); in assay [3], at most 0.03 µg/mL; in assay [4], at most 0.03 µg/mL; in [5] (KPN151, 37° C., 18 h) it was 16 µg/mL (≈ 35.7 µM); in assay [6] (ATCC19606, 37° C., 18 h) it was 16 µg/mL (≈ 35.7 µM). Moreover, the MIC was at most 0.03 µg/mL in assay [7]; 2 µg/mL (≈ 4.46 µM) in [8] (ATCC25922, 37° C., 18 h); at most 0.03 µg/mL in assay [9]; 0.008 µg/mL (≈ 0.0178 µM) in assay [10]; at most 0.03 µg/mL in assay [11]; 16 µg/mL (≈ 35.7 µM) in assay [12] (37° C.). Also, the MIC in [13] (Clostridioides difficile, ATCC9689; read-out: MIC Clostridium difficile ATCC 9689) is 0.25 µg/mL (≈ 0.558 µM); in [14] it was 0.595 µg/mL (≈ 1.33 µM); in [15], at most 0.03 µg/mL; in assay [16], at most 0.03 µg/mL. For the same molecule, in assay [13] (vs DS2969 and vancomycin), the “Activity against Clostridium difficile compared with controls” value was “stronger than those of DS2969 and the positive control drug vancomycin”.
Turning to `CO[C@H]1CN(c2cnc(C(C)(C)O)cn2)CC[C@H]1NC(=O)c1[nH]c(C)c(Cl)c1Cl` [Compound 4, 3,4-Dichloro-N-((3S,4R)-1-(5-(2-hydroxypropan-2-yl)pyrazin-2-yl)-3-methoxypiperidin-4-yl)-5-methyl-1H-pyrrole-2-carboxamide], the MIC in assay [7] turned out to be 0.5 µg/mL (≈ 1.13 µM); in [10], 0.25 µg/mL (≈ 0.565 µM).
As to `CO[C@H]1CN(c2ncc(C(C)(C)O)s2)CC[C@H]1NC(=O)c1[nH]c(C)c(Cl)c1Cl` [Compound 6, 3,4-Dichloro-N-((3S,4R)-1-(5-(2-hydroxypropan-2-yl)thiazol-2-yl)-3-methoxypiperidin-4-yl)-5-methyl-1H-pyrrole-2-carboxamide], the MIC in assay [7] and in assay [10] was 0.25 µg/mL (≈ 0.559 µM) each time.
As to `CO[C@H]1CN(c2ccc(C3(O)CCCC3)nn2)CC[C@H]1NC(=O)c1[nH]c(C)c(Cl)c1Cl` [Compound 7, 3,4-Dichloro-N-((3S,4R)-1-(6-(1-hydroxycyclopentyl)pyridazin-3-yl)-3-methoxypiperidin-4-yl)-5-methyl-1H-pyrrole-2-carboxamide], the MIC in assay [7] was 0.125 µg/mL (≈ 0.267 µM); in assay [8] (ATCC25922, 37° C., 18 h), 8 µg/mL (≈ 17.1 µM); in assay [10] it was at most 0.03 µg/mL.
For `CO[C@H]1CN(c2ccc(C3(O)CCCCC3)nn2)CC[C@H]1NC(=O)c1[nH]c(C)c(Cl)c1Cl` [Compound 8, 3,4-Dichloro-N-((3S,4R)-1-(6-(1-hydroxycyclohexyl)pyridazin-3-yl)-3-methoxypiperidin-4-yl)-5-methyl-1H-pyrrole-2-carboxamide] the same measures were at most 0.03 µg/mL, 16 µg/mL (≈ 33.2 µM) and at most 0.03 µg/mL.
As to `C[C@H]1COc2c(N3CCN(C)CC3)c(F)cc3c(=O)c(C(=O)O)cn1c23` [Levofloxacin, reference compound], the minimal inhibitory concentration (MIC) is at most 0.06 µg/mL in [1] (ATCC35218, 37° C., 18 h); 2 µg/mL (≈ 5.53 µM) in assay [2] (ATCC27853, 37° C., 18 h); 0.25 µg/mL (≈ 0.692 µM) in assay [3]; 0.5 µg/mL (≈ 1.38 µM) in assay [4]; 0.5 µg/mL (≈ 1.38 µM) in [5] (KPN151, 37° C., 18 h); 0.25 µg/mL (≈ 0.692 µM) in assay [6] (ATCC19606, 37° C., 18 h). Besides, the MIC was 0.125 µg/mL (≈ 0.346 µM) in [7]; at most 0.06 µg/mL in [8] (ATCC25922, 37° C., 18 h); 16 µg/mL (≈ 44.3 µM) in [9]; 0.25 µg/mL (≈ 0.692 µM) in assay [10]; 4 µg/mL (≈ 11.1 µM) in assay [11]; 8 µg/mL (≈ 22.1 µM) in [12] (37° C.). In addition, the MIC in assay [15] was determined as 0.25 µg/mL (≈ 0.692 µM); in assay [16] it was 0.5 µg/mL (≈ 1.38 µM).
`CN[C@H](CC(C)C)C(=O)N[C@H]1C(=O)N[C@@H](CC(N)=O)C(=O)N[C@H]2C(=O)N[C@H]3C(=O)N[C@H](C(=O)N[C@H](C(=O)O)c4cc(O)cc(O)c4-c4cc3ccc4O)[C@H](O)c3ccc(c(Cl)c3)Oc3cc2cc(c3O[C@@H]2O[C@H](CO)[C@@H](O)[C@H](O)[C@H]2O[C@H]2C[C@](C)(N)[C@H](O)[C@H](C)O2)Oc2ccc(cc2Cl)[C@H]1O` [Vancomycin]: the MIC is above 64 µg/mL in [1] (ATCC35218, 18 h); above 64 µg/mL in [2] (ATCC27853, 18 h); above 64 µg/mL in assay [5] (KPN151, 18 h); above 64 µg/mL in assay [6] (ATCC19606, 18 h); above 64 µg/mL in assay [8] (ATCC25922, 18 h); above 64 µg/mL in [12]. Moreover, in assay [13] (Clostridioides difficile, ATCC9689, read-out: MIC Clostridium difficile ATCC 9689), the MIC was found to be 2 µg/mL (≈ 1.38 µM).
